System: pre-cultured PBMCs (NSP12-specific T cells)
Assay: IFN-γ ELISpot with single 15-mer peptides after 11–13 days in vitro peptide-pool T-cell expansion
Format: cell-based, human
Conditions: for peptide-specific response, donor HH-N12-18, post COVID-19 / peptide-specific response, donor HH-N12-34, post COVID-19 / peptide-specific response, donor HH-N12-35, post COVID-19 / peptide-specific response, donor HH-N12-36, post COVID-19 / peptide-specific response, donor HH-N12-37, post COVID-19 / peptide-specific T-cell response, donor HH-N12-18, post COVID-19 / peptide-specific T-cell response, donor HH-N12-34, post COVID-19 / peptide-specific T-cell response, donor HH-N12-35, post COVID-19 / peptide-specific T-cell response, donor HH-N12-36, post COVID-19 / peptide-specific T-cell response, donor HH-N12-37, post COVID-19: sample post COVID-19; for peptide-specific response, donor HH-N12-18, post COVID-19 / peptide-specific response, donor HH-N12-18, pre COVID-19 / peptide-specific response, donor HH-N12-34, post COVID-19 / peptide-specific response, donor HH-N12-34, pre COVID-19 / peptide-specific response, donor HH-N12-35, post COVID-19 / peptide-specific response, donor HH-N12-35, pre COVID-19 / peptide-specific response, donor HH-N12-36, post COVID-19 / peptide-specific response, donor HH-N12-36, pre COVID-19 / peptide-specific response, donor HH-N12-37, post COVID-19 / peptide-specific response, donor HH-N12-37, pre COVID-19: single NSP12 15-mer peptides; for peptide-specific response, donor HH-N12-18, pre COVID-19 / peptide-specific response, donor HH-N12-34, pre COVID-19 / peptide-specific response, donor HH-N12-35, pre COVID-19 / peptide-specific response, donor HH-N12-36, pre COVID-19 / peptide-specific response, donor HH-N12-37, pre COVID-19 / peptide-specific T-cell response, donor HH-N12-18, pre COVID-19 / peptide-specific T-cell response, donor HH-N12-34, pre COVID-19 / peptide-specific T-cell response, donor HH-N12-35, pre COVID-19 / peptide-specific T-cell response, donor HH-N12-36, pre COVID-19 / peptide-specific T-cell response, donor HH-N12-37, pre COVID-19: sample pre COVID-19; for peptide-specific T-cell response, donor HH-N12-18, post COVID-19 / peptide-specific T-cell response, donor HH-N12-18, pre COVID-19 / peptide-specific T-cell response, donor HH-N12-34, post COVID-19 / peptide-specific T-cell response, donor HH-N12-34, pre COVID-19 / peptide-specific T-cell response, donor HH-N12-35, post COVID-19 / peptide-specific T-cell response, donor HH-N12-35, pre COVID-19 / peptide-specific T-cell response, donor HH-N12-36, post COVID-19 / peptide-specific T-cell response, donor HH-N12-36, pre COVID-19 / peptide-specific T-cell response, donor HH-N12-37, post COVID-19 / peptide-specific T-cell response, donor HH-N12-37, pre COVID-19: single NSP12 15-mer peptide, 0 = no response

| Sequence | peptide-specific response, donor HH-N12-18, post COVID-19 | peptide-specific response, donor HH-N12-18, pre COVID-19 | peptide-specific response, donor HH-N12-34, post COVID-19 | peptide-specific response, donor HH-N12-34, pre COVID-19 | peptide-specific response, donor HH-N12-35, post COVID-19 | peptide-specific response, donor HH-N12-35, pre COVID-19 | peptide-specific response, donor HH-N12-36, post COVID-19 | peptide-specific response, donor HH-N12-36, pre COVID-19 | peptide-specific response, donor HH-N12-37, post COVID-19 | peptide-specific response, donor HH-N12-37, pre COVID-19 | peptide-specific T-cell response, donor HH-N12-18, post COVID-19 | peptide-specific T-cell response, donor HH-N12-18, pre COVID-19 | peptide-specific T-cell response, donor HH-N12-34, post COVID-19 | peptide-specific T-cell response, donor HH-N12-34, pre COVID-19 | peptide-specific T-cell response, donor HH-N12-35, post COVID-19 | peptide-specific T-cell response, donor HH-N12-35, pre COVID-19 | peptide-specific T-cell response, donor HH-N12-36, post COVID-19 | peptide-specific T-cell response, donor HH-N12-36, pre COVID-19 | peptide-specific T-cell response, donor HH-N12-37, post COVID-19 | peptide-specific T-cell response, donor HH-N12-37, pre COVID-19 |
| --- | --- | --- | --- | --- | --- | --- | --- | --- | --- | --- | --- | --- | --- | --- | --- | --- | --- | --- | --- | --- |
| LTKPYIKWDLLKYDF [compound 53] | 0.021 | 0.02 | 0 | 0 | 0 | 0 | 0 | 0 | 0 | 0 |  |  |  |  |  |  |  |  |  |  |
| LVLARKHTTCCSLSH [compound 128] | 0 | 0 | 0 | 0 | 0 | 0 | 0 | 0 | 0 | 0 |  |  |  |  |  |  |  |  |  |  |
| LYRNRDVDTDFVNEF [compound 147] | 0 | 0 | 0 | 0 | 0 | 0 | 0 | 0 | 0 | 0 |  |  |  |  |  |  |  |  |  |  |
| MILSDDAVVCFNSTY [compound 152] |  |  |  |  |  |  |  |  |  |  | 0 | 0 | 0 | 0 | 0 | 0 | 0 | 0 | 0 | 0 |
| MLKTVYSDVENPHLM [compound 121] | 0 | 0 | 0 | 0 | 0 | 0 | 0.052 | 0 | 0 | 0 |  |  |  |  |  |  |  |  |  |  |
| MRNAGIVGVLTLDNQ [compound 40] | 0 | 0 | 0.032 | 0 | 0 | 0 | 0 | 0 | 0 | 0 |  |  |  |  |  |  |  |  |  |  |
| NFKSVLYYQNNVFMS [compound 157] |  |  |  |  |  |  |  |  |  |  | 0.3 | 0 | 0 | 0 | 0 | 0 | 0 | 0 | 0 | 0 |

From publication PMC10196118, “Evidence for broad cross-reactivity of the SARS-CoV-2 NSP12-directed CD4^+ T-cell response with pre-primed responses directed against common cold coronaviruses” (Frontiers in Immunology, 2023)
